From patent publication US20190382839A1, “[…]” (Bayer Pharma Aktiengesellschaft, priority 2016, published 2019)
Like-named read-outs stand apart in the source and are kept apart here.

System: NHL patients (FL, MZL, MCL, DLBCL, transformed indolent lymphoma, CLL)
Text: Best response status and progression-free survival (hereinafter referred to as “PFS”) from independent review assessment were used for gene expression analysis. A total number of 24 patients including 3 complete responders, 1 confirmed (hereinafter referred to as “CR”) and 2 unconfirmed (hereinafter referred to as “CRu”) and 5 partial responders (hereinafter referred to as “PR”), 11 stable diseases (hereinafter referred to as “SD”) and 5 progressive diseases (hereinafter referred to as “PD”) with follicular lymphoma (hereinafter referred to as “FL”), marginal zone lymphoma (hereinafter referred to as “MZL”), mantle cell lymphoma (“MCL”), diffuse large B-cell lymphoma (hereinafter referred to as “DLBCL”), transformed indolent lymphoma or CLL who had baseline RNA expression profiling data of sufficient quantity and quality were used for gene expression analysis as listed in Table 1 (given in the experimental section).
Bioinformatics and statistical analyses were done for all 24 NHL patients. […] For GSEA, 34 gene sets (vide Tables 2 and 3) sharing key biological function/process in apoptosis, B-cell receptor (hereinafter referred to as “BCR”) signaling, IL6/JAK/STAT3, cytokine/chemokine, MAPK, MYC, MYD88, NFAT, NFkB, NOTCH, PI3K or tumor microenvironment (refs 3 and 4) were selected and generated.
A weighted gene expression score (hereinafter referred to as “WGS”) reflecting the overall expression level for each gene set was generated from logistic regression and Cox proportional hazards models to assess the association with response status (best-response-WGS) and PFS (PFS-WGS), respectively.
Both the best-response-WGS as well as the PFS-WGS were in turn used in logistic regression or Cox regression models to assess the association of either WGS with the endpoints. Moreover, the raw best-response WGS was used to compute non-cross validated AUC estimates for responder (CR+PR) and non-responder (SD+PD) classifications.

COc1c(OCCCN2CCOCC2)ccc2c1N=C(NC(=O)c1cnc(N)nc1)N1CCN=C21 [copanlisib]
median PFS (CSTB, median gene expression level as cutoff, first printed group (high expression, shorter PFS)): 74 days | number of patients with CR (of the 24 analyzable patients): 3 | number of patients with PD (of the 24 analyzable patients): 5 | number of patients with PR (of the 24 analyzable patients): 5 | number of patients with SD (of the 24 analyzable patients): 11 | objective response rate (patients with high BCR pathway WGS compared to low): increased | objective response rate (patients with high PI3K pathway WGS compared to low): increased
